This is an account of results in patent publication US9493446B2, “Orexin receptor antagonists which are [ortho bi-(hetero-)aryl]-[2-(meta bi-(hetero-)aryl)-pyrrolidin-1-yl]-methanone derivatives” (Actelion Pharmaceuticals Ltd, priority 2012, dated 2016).

In one assay the target is orexin-1 (Homo sapiens (Human), UniProt O43613). The assay can be described thus: Intracellular calcium measurement (FLIPR), CHO cells expressing human orexin-1 receptor, 3 nM orexin-A. The format is cell-based. As to conditions: read-out: IC50 OX1. The procedure, abridged:
(§1)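 Fluo-4 AM-loaded CHO cells; antagonist preincubation 120 min, then 3 nM orexin-A (final) in HBSS/0.1% BSA/20 mM HEPES. FLIPR read at 1 s intervals; peak height vs. agonist-plus-vehicle control → IC50.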

For the next assay, the target named is human orexin-2 receptor (Homo sapiens (Human), UniProt O43614). The assay can be described thus: Intracellular calcium measurement (FLIPR), CHO cells expressing human orexin-2 receptor, 3 nM orexin-A. The format is cell-based. To be noted: CHO cells expressing human orexin-2 receptor, FLIPR, 3 nM orexin-A; geometric mean if determined several times; read-out: IC50 OX2. An outline of the steps: as §1
On the technique in general: Calcium assays in cells follow changes in intracellular calcium, usually with a dye or a luminescent sensor.

The mark [1] stands for this setting: CHO cells expressing human orexin-1 receptor, FLIPR, 3 nM orexin-A, geometric mean if determined several times.

Each structure is given as a SMILES string. Where two headings read alike, the source gives them in different places.

Chain of human orexin-2 receptor (O43614 whole entry): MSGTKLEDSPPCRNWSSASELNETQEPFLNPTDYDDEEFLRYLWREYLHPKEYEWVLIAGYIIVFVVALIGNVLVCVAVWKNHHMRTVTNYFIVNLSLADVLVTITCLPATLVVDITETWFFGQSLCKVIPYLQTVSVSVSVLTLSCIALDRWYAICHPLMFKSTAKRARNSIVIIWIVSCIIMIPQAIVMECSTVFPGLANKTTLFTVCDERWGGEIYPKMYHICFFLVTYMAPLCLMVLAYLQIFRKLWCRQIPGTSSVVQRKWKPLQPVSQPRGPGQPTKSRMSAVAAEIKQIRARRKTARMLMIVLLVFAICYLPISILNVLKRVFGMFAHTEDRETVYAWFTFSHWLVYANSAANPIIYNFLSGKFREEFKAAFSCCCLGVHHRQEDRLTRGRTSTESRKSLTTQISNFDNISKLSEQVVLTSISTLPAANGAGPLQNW
Chain of orexin-1 (O43613 whole entry): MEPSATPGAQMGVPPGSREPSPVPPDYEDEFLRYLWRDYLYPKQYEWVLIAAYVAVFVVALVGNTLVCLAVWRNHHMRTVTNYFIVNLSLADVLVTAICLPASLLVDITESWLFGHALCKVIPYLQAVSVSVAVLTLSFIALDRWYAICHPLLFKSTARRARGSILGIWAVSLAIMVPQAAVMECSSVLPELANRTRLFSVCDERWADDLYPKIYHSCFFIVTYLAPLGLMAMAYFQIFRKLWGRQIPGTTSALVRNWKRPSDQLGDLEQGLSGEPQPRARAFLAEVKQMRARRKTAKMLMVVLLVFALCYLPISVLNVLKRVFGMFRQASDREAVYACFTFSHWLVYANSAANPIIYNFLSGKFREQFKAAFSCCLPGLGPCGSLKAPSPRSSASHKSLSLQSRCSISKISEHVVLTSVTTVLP

For orientation: IC50 means the point on the concentration scale where inhibition reaches its midpoint. Consider `O=C(c1cc(Cl)ccc1-n1nccn1)N1CCC[C@H]1c1noc(-c2ccccc2OC(F)(F)F)n1` [compound 377], for which the IC50 on orexin-1 (setting [1]) amounted to 68 nM; at human orexin-2 receptor, 15 nM.
Regarding `COCc1ccccc1-c1noc([C@@H]2CCCN2C(=O)c2cc(C)ccc2-n2nccn2)n1` [compound 44, {(S)-2-[3-(2-Methoxymethyl-phenyl)-[1,2,4]oxadiazol-5-yl]-pyrrolidin-1-yl}-(5-methyl-2-[1,2,3]triazol-2-yl-phenyl)-methanone], the results for the IC50 on orexin-1 (setting [1]) and on human orexin-2 receptor were 110 nM and 14 nM, respectively.
On to `COc1c(F)cccc1-c1nnc([C@@H]2CCCN2C(=O)c2cc(Cl)c(C)cc2-n2nccn2)[nH]1` [compound 475], for which the IC50 on orexin-1 worked out at 11 nM; on human orexin-2 receptor, 2 nM.
Take `Cc1ccc(-n2nccn2)c(C(=O)N2CCC[C@H]2c2nc(-c3c[nH]c4ncccc34)no2)c1` [compound 50, (5-Methyl-2-[1,2,3]triazol-2-yl-phenyl)-{(S)-2-[3-(1H-pyrrolo[2,3-b]pyridin-3-yl)-[1,2,4]oxadiazol-5-yl]-pyrrolidin-1-yl}-methanone]: the IC50 turned out to be 131 nM on orexin-1 (setting [1]) and 75 nM on human orexin-2 receptor.
On the same counts, the results for `Cc1nc(C(=O)N2CCC[C@H]2c2nnc(-c3ccccc3OC(F)(F)F)o2)c(-c2cccc(F)c2)s1` [compound 443, [5-(3-Fluoro-phenyl)-2-methyl-thiazol-4-yl]-{(S)-2-[5-(2-trifluoromethoxy-phenyl)-[1,3,4]oxadiazol-2-yl]-pyrrolidin-1-yl}-methanone] are 68 nM and 45 nM.
On the same counts, the results for `Cc1ccc(-n2nccn2)c(C(=O)N2CCC[C@H]2c2nnc(-c3cccc(F)c3C)[nH]2)c1` [compound 494, {(S)-2-[5-(3-Fluoro-2-methyl-phenyl)-4H-[1,2,4]triazol-3-yl]-pyrrolidin-1-yl}-(5-methyl-2-[1,2,3]triazol-2-yl-phenyl)-methanone] are 847 nM and 27 nM.
On the same counts, the results for `COc1cc(C(=O)N2CCC[C@H]2c2nc(-c3cccc(F)c3OC)no2)c(-c2ncccn2)cc1C` [compound 286, {(S)-2-[3-(3-Fluoro-2-methoxy-phenyl)-[1,2,4]oxadiazol-5-yl]-pyrrolidin-1-yl}-(5-methoxy-4-methyl-2-pyrimidin-2-yl-phenyl)-methanone] are 90 nM and 6 nM.
As for `COc1ccc(C)cc1-c1nc([C@@H]2CCCN2C(=O)c2cc(C)ccc2-n2nccn2)no1` [compound 411, {(S)-2-[5-(2-Methoxy-5-methyl-phenyl)-[1,2,4]oxadiazol-3-yl]-pyrrolidin-1-yl}-(5-methyl-2-[1,2,3]triazol-2-yl-phenyl)-methanone], the figures for the IC50 at orexin-1 (setting [1]) and at human orexin-2 receptor were 99 nM and 9 nM, respectively.
On the same counts, the results for `Cc1c(F)cccc1-c1nc([C@@H]2CCCN2C(=O)c2ccccc2-n2nccn2)no1` [compound 333, {(S)-2-[5-(3-Fluoro-2-methyl-phenyl)-[1,2,4]oxadiazol-3-yl]-pyrrolidin-1-yl}-(2-[1,2,3]triazol-2-yl-phenyl)-methanone] are 644 nM and 17 nM.
For `Cc1ccc(-n2nccn2)c(C(=O)N2CCC[C@H]2c2nnc(-c3ccccc3OC(F)(F)F)o2)c1` [compound 442, (5-Methyl-2-[1,2,3]triazol-2-yl-phenyl)-{(S)-2-[5-(2-trifluoromethoxy-phenyl)-[1,3,4]oxadiazol-2-yl]-pyrrolidin-1-yl}-methanone], in that order: 184 nM and 118 nM.
With `COc1c(Cl)cccc1-c1nnc([C@@H]2CCCN2C(=O)c2ccc(C)cc2-n2nccn2)[nH]1` [compound 489, {(S)-2-[5-(3-Chloro-2-methoxy-phenyl)-4H-[1,2,4]triazol-3-yl]-pyrrolidin-1-yl}-(4-methyl-2-[1,2,3]triazol-2-yl-phenyl)-methanone], the IC50 on orexin-1 (setting [1]) stood at 62 nM; at human orexin-2 receptor, 10 nM.
For the compound `Cc1ccc(-n2nccn2)c(C(=O)N2CCC[C@H]2c2nc(-c3ccccc3OC(F)(F)F)co2)c1` [Example 460, (5-Methyl-2-[1,2,3]triazol-2-yl-phenyl)-{(S)-2-[4-(2-trifluoromethoxy-phenyl)-oxazol-2-yl]-pyrrolidin-1-yl}-methanone], the figures for the IC50 on orexin-1 (setting [1]) and at human orexin-2 receptor were 10 nM and 16 nM, respectively.
Regarding `CCOc1c(F)cccc1-c1noc([C@@H]2CCCN2C(=O)c2cc(OC)c(F)cc2-n2nccn2)n1` [compound 292, {(S)-2-[3-(2-Ethoxy-3-fluoro-phenyl)-[1,2,4]oxadiazol-5-yl]-pyrrolidin-1-yl}-(4-fluoro-5-methoxy-2-[1,2,3]triazol-2-yl-phenyl)-methanone], the IC50 at orexin-1 (setting [1]) amounted to 348 nM; on human orexin-2 receptor it was 52 nM.
For `Cc1ccc(-c2noc([C@@H]3CCCN3C(=O)c3cc(C)ccc3-n3nccn3)n2)c(C)c1` [compound 81, {(S)-2-[3-(2,4-Dimethyl-phenyl)-[1,2,4]oxadiazol-5-yl]-pyrrolidin-1-yl}-(5-methyl-2-[1,2,3]triazol-2-yl-phenyl)-methanone], the results for the IC50 on orexin-1 (setting [1]) and on human orexin-2 receptor were 309 nM and 19 nM, respectively.
On the same counts, the results for `CCOc1c(F)cccc1-c1nc([C@@H]2CCCN2C(=O)c2cc(Cl)c(C)cc2-n2nccn2)no1` [compound 366] are 5 nM and 3 nM.
For `COc1cc(C(=O)N2CCC[C@H]2c2nnc(-c3cccc(F)c3OC)[nH]2)c(-n2nccn2)cc1Cl` [compound 472], in that order: 19 nM and 2 nM.
On the same counts, the results for `Cc1ccc(-n2nccn2)c(C(=O)N2CCC[C@H]2c2nc(-c3cc(C)ccc3C)no2)c1` [compound 84, {(S)-2-[3-(2,5-Dimethyl-phenyl)-[1,2,4]oxadiazol-5-yl]-pyrrolidin-1-yl}-(5-methyl-2-[1,2,3]triazol-2-yl-phenyl)-methanone] are 63 nM and 8 nM.
Turning to `COc1cc(Cl)cc(-c2nc([C@@H]3CCCN3C(=O)c3cc(C)ccc3-n3nccn3)no2)n1` [compound 316, {(S)-2-[5-(4-Chloro-6-methoxy-pyridin-2-yl)-[1,2,4]oxadiazol-3-yl]-pyrrolidin-1-yl}-(5-methyl-2-[1,2,3]triazol-2-yl-phenyl)-methanone], the figures for the IC50 on orexin-1 (setting [1]) and on human orexin-2 receptor were 54 nM and 19 nM, respectively.
Consider `CCOc1ncccc1-c1nnc([C@@H]2CCCN2C(=O)c2ccc(C)cc2-n2nccn2)[nH]1` [compound 482, {(S)-2-[5-(2-Ethoxy-pyridin-3-yl)-4H-[1,2,4]triazol-3-yl]-pyrrolidin-1-yl}-(4-methyl-2-[1,2,3]triazol-2-yl-phenyl)-methanone], for which the IC50 on orexin-1 (setting [1]) turned out to be 68 nM; at human orexin-2 receptor, 94 nM.
In the case of `Cc1cccc(-c2nc([C@@H]3CCCN3C(=O)c3cc(Cl)ccc3-n3nccn3)no2)c1C` [compound 394], the IC50 worked out at 134 nM on orexin-1 and 12 nM on human orexin-2 receptor.
Consider `CCOc1cnccc1-c1noc([C@@H]2CCCN2C(=O)c2cc(C)ccc2-n2nccn2)n1` [compound 55, {(S)-2-[3-(3-Ethoxy-pyridin-4-yl)-[1,2,4]oxadiazol-5-yl]-pyrrolidin-1-yl}-(5-methyl-2-[1,2,3]triazol-2-yl-phenyl)-methanone], for which the IC50 at orexin-1 (setting [1]) amounted to 241 nM; at human orexin-2 receptor it was 41 nM.
For `Cc1c(F)cccc1-c1noc([C@@H]2CCCN2C(=O)c2cc(C#N)ccc2-n2nccn2)n1` [compound 277, 3-{(S)-2-[3-(3-Fluoro-2-methyl-phenyl)-[1,2,4]oxadiazol-5-yl]-pyrrolidine-1-carbonyl}-4-[1,2,3]triazol-2-yl-benzonitrile], in that order: 1480 nM and 297 nM.
For `COc1cc(C(=O)N2CCC[C@H]2c2nc(-c3cccc(Cl)c3C)no2)c(-n2nccn2)cc1C` [compound 103], in that order: 30 nM and 2 nM.
For `CCOc1ncccc1-c1noc([C@@H]2CCCN2C(=O)c2cccc(F)c2-c2ccn[nH]2)n1` [compound 216, {(S)-2-[3-(2-Ethoxy-pyridin-3-yl)-[1,2,4]oxadiazol-5-yl]-pyrrolidin-1-yl}-[3-fluoro-2-(2H-pyrazol-3-yl)-phenyl]-methanone], in that order: 76 nM and 27 nM.
Take `Cc1ccc(C(=O)N2CCC[C@H]2c2noc(-c3cccc(C)c3C)n2)c(-n2nccn2)c1` [compound 391, {(S)-2-[5-(2,3-Dimethyl-phenyl)-[1,2,4]oxadiazol-3-yl]-pyrrolidin-1-yl}-(4-methyl-2-[1,2,3]triazol-2-yl-phenyl)-methanone]: the IC50 at orexin-1 (setting [1]) is 68 nM; on human orexin-2 receptor, 14 nM.
Turning to `COc1c(Cl)cccc1-c1nc([C@@H]2CCCN2C(=O)c2ccc(C)cc2-n2nccn2)no1` [compound 354], the IC50 is 12 nM at orexin-1 (setting [1]) and 5 nM on human orexin-2 receptor.
For `Cc1ccc(-c2ccccc2)c(C(=O)N2CCC[C@H]2c2nc(-c3ccccc3OC(F)(F)F)no2)c1` [compound 136, (4-Methyl-biphenyl-2-yl)-{(S)-2-[3-(2-trifluoromethoxy-phenyl)-[1,2,4]oxadiazol-5-yl]-pyrrolidin-1-yl}-methanone], in that order: 12 nM and 9 nM.
On the same counts, the results for `COc1cc(C(=O)N2CCC[C@H]2c2noc(-c3cccc(Cl)c3C)n2)c(-n2nccn2)cc1Cl` [compound 367] are 20 nM and 2 nM.
`Cc1c(F)cccc1-c1noc([C@@H]2CCCN2C(=O)c2cccc(F)c2-c2ccn[nH]2)n1` [compound 253, {(S)-2-[3-(3-Fluoro-2-methyl-phenyl)-[1,2,4]oxadiazol-5-yl]-pyrrolidin-1-yl}-[3-fluoro-2-(2H-pyrazol-3-yl)-phenyl]-methanone]: the IC50 at orexin-1 (setting [1]) amounted to 174 nM; on human orexin-2 receptor it was 5 nM.
In the case of `Cc1ccc(-c2ncccn2)c(C(=O)N2CCC[C@H]2c2nc(-c3cccc(Cl)c3C)no2)c1` [compound 274], the IC50 stood at 171 nM at orexin-1 (setting [1]) and 29 nM on human orexin-2 receptor.
